Test results from US10682323B2, “Therapeutic agent for glaucoma” (TOA EIYO LTD., priority 2016, dated 2020).

Tests used:
[1] = tested on: Rabbits with normal intraocular pressure; assay: Influence on intraocular pressure in rabbits with normal intraocular pressure; assay type: in vivo; settings: rabbit, 50 μL of 0.1 w/v % solution instilled into one eye, three hours after administration, saline eye minus test eye, average of three
Method: Rabbits (strain: Std:NZW, sex: male) with normal intraocular pressure were acclimated to breeding environment for more than three weeks, and subjected to test (three rabbits per one group).
A test compound was weighed, and a required amount of a 10 mmol/L or 20 mmol/L tris hydrochloric acid buffer solution was added thereto with a micropipette and dissolved therein. If necessary, a 1 mol/L hydrochloric acid or a 1 mol/L sodium hydroxide solution was used to prepare a physiological pH, to obtain the test compound solution (0.1 w/v % solution).
50 μL of the test compound solution was instilled into one eye, and 50 μL of a saline solution was instilled into the other eye as a negative control. Three hours after administration, intraocular pressure was measured. In addition, the measurement of intraocular pressure was repeated in the manner of right eye→left eye→right eye→left eye→ . . . , and continued until the changes of three consecutive intraocular pressures of the right eye and the left eye were within 1 mmHg, respectively. The average of three intraocular pressures at that time was recorded as the intraocular pressure at that time. In addition, ΔIOP (mmHg) was calculated by subtracting the intraocular pressure of the eye for instillation of the test compound solution from the intraocular pressure of the eye for instillation of the saline solution.
In addition, the data represents an average of three tests per one group.

[2] = Determination of Log D value (flask shaking method); assay type: physicochemical; settings: pH 6.8; partition between n-octanol and second solution for the disintegration test (16th revised Japanese Pharmacopoeia), room temperature
Method: More specifically, the Log D is more preferably 1.6 or more and 2.3 or less, still more preferably 1.8 or more and 2.2 or less, and particularly preferably 1.8 or more and 2.1 or less. Here, the Log D value in the present invention is a compound partition coefficient between n-octanol and a second solution of a disintegration test of the 16th revised Japanese Pharmacopoeia.
The Log D value was determined using a flask shaking method, where a test compound partition coefficient between n-octanol and the second solution for the disintegration test defined in the 16th revised Japanese Pharmacopoeia was calculated. Specifically, in a microtube containing 2 mg of the test compound, n-octanol (0.25 mL) and the second solution for the disintegration test (0.25 mL) were mixed. The tube was shaken in a multi shaker at room temperature for 60 minutes, and allowed to stand until the two phases were completely separated. In the microtube, 10 μL of an n-octanol phase was diluted with 190 μL of 85% methanol and mixed, thereby obtaining an organic phase test solution. 100 μL of the second solution phase for the disintegration test was diluted with 100 μL of 50% methanol, and mixed, thereby obtaining an aqueous phase test solution. The organic phase test solution and the aqueous phase test solution were filtered, respectively, and the concentration of the test compound in these test solutions were measured, using high performance liquid chromatography. Then, from the measured concentration and dilution rate, the Log D was calculated.
That is, the Log D of the present specification is represented by the following equation: Log D=Log10([concentration of test compound in organic phase test solution]/[concentration of test compound in aqueous phase test solution])+1 [Equation 1]
The second solution for the disintegration test herein refers to, as defined in the 16th revised Japanese Pharmacopoeia, a liquid obtained by adding to 250 mL of a 0.2 mol/L potassium dihydrogenphosphate reagent, 118 mL of a 0.2 mol/L sodium hydroxide reagent, and water for adjusting to 1000 mL volume.

Compound	logD [2]	ΔIOP [1]
N#Cc1cccc([C@H](CN(CCCCC(=O)O)Cc2ccc(C(=O)O)cc2)OCc2ccc(Oc3ccccc3)cc2)c1 [Comparative Compound 3, reference compound]	1.32	1.1 mmHg
O=C(O)CCCCN(CCc1ccccc1OCc1cccc2c1CCCC2)[C@H]1CCCc2cc(C(=O)O)ccc21 [Compound No. 8, (+)-(5S)-5-[N-(4-carboxybutyl)-N-[2-[2-(5,6,7,8-tetrahydronaphthalene-1-ylmethoxy)phenyl]ethyl]amino]-5,6,7,8-tetrahydronaphthalene-2-carboxylic acid]	1.87	5.2 mmHg
O=C(O)CCCCN(Cc1ccc(C(=O)O)cc1)C[C@H](OCc1ccc(CCc2ccccc2)cc1)c1ccccc1 [Compound No. 14, (−)-4-([N-(4-carboxybutyl)-N-[(2R)-2-[4-(2-phenylethyl)benzyloxy]-2-phenylethyl]amino]methyl)benzoic acid]	2.04	5.0 mmHg

The next lines start with results.

logD [2]	Compound	ΔIOP [1]
2.02	O=C(O)CCCCN(Cc1ccc(C(=O)O)cc1)C[C@H](OCc1ccc(CCc2ccc(Cl)cc2)cc1)c1ccccc1 [Compound No. 6, (−)-4-([N-(4-carboxybutyl)-N-[(2R)-2-[4-[2-(4-chlorophenyl)ethyl]benzyloxy]-2-phenylethyl]amino]methyl)benzoic acid]	3.4 mmHg
1.5	O=C(O)CCCCN(CCc1ccccc1OCc1ccc(CCc2ccccc2)cc1)Cc1ccc(C(=O)O)cc1 [Comparative Compound 1, reference compound]	0.3 mmHg
2.59	O=C(O)CCCCN(CCc1ccccc1OCc1ccc(CCc2ccccc2)cc1)C1COc2cc(C(=O)O)ccc21 (centres unmarked) [Comparative Compound 2, reference compound]	1.5 mmHg
2.78	CC(C)(C)c1cc(CO[C@@H](CN(CCCCC(=O)O)Cc2ccc(C(=O)O)cc2)c2ccccc2)cc(C(C)(C)C)c1 [Comparative Compound 4, reference compound]	0.2 mmHg
